Experimental data: patent US20240287138A1, “CYCLIC PEPTIDES FOR INHIBITING TNF RECEPTOR 1 ACTIVITY” (Merck Sharp & Dohme LLC, priority 2023, published 2024)
Read-outs that look alike come from different tables or passages of the source. Numbered stars: 1 amine (or outer) side, 2 acyl side, 3 side chain; on linkers, the order of the positions; unused ones are H or OH. Bridge positions count the residues as written; N and C are the ends. Square brackets hold non-standard residues; d marks the D form. Peptide text beside a SMILES is read from it. * marks the point of attachment. Trp(βS-Me,7-OMe) = COc1cccc2c([C@H](C)[C@H](N)C(=O)O)c[nH]c12; dPro(trans-4-NMe3+) = C[N+](C)(C)[C@@H]1CN[C@@H](C(=O)O)C1; Phe(4-SO2NH2) = N[C@@H](Cc1ccc(S(N)(=O)=O)cc1)C(=O)O; Trp(7-CN) = N#Cc1cccc2c(C[C@H](N)C(=O)O)c[nH]c12; Trp(7-Cl) = N[C@@H](Cc1c[nH]c2c(Cl)cccc12)C(=O)O; Phe(4-CONH2) = NC(=O)c1ccc(C[C@H](N)C(=O)O)cc1; Phe(4-COOH) = N[C@@H](Cc1ccc(C(=O)O)cc1)C(=O)O; 4Pal(3S-Me) = C[C@@H](c1ccncc1)[C@H](N)C(=O)O; Trp(7-aza) = N[C@@H](Cc1c[nH]c2ncccc12)C(=O)O; Phe(4-CH2NH2) = NCc1ccc(C[C@H](N)C(=O)O)cc1; dPro(trans-4-F) = O=C(O)[C@H]1C[C@H](F)CN1; Pip(5R-OH) = O=C(O)[C@@H]1CC[C@@H](O)CN1; αMeW = C[C@](N)(Cc1c[nH]c2ccccc12)C(=O)O; X1 = O=C([C@@H]1CC[C@H](N[*:1])C1)[*:2]; X35 = CC(C)(N)[C@H](N[*:1])C(=O)[*:2]; Pip(4-aza) = O=C(O)[C@@H]1CNCCN1; 4Pal = N[C@@H](Cc1ccncc1)C(=O)O; NMeE = CN[C@@H](CCC(=O)O)C(=O)O; dHyp = O=C(O)[C@H]1C[C@H](O)CN1; Aad = N[C@@H](CCCC(=O)O)C(=O)O; X36 = C[C@@H](C(=O)[*:1])[*:2]; X39 = C[C@H](C(=O)[*:1])[*:2]; Ahp(2) = CCCCC[C@H](N)C(=O)O; αMeS = C[C@](N)(CO)C(=O)O; Carboxymethyl = O=C(O)C*; Nle = CCCC[C@H](N)C(=O)O; Dab = NCC[C@H](N)C(=O)O; Sar = CNCC(=O)O

Experiments:
[1] = target: T1, human soluble TNFR1 (sTNFR1) (Homo sapiens, UniProt P19438); assay: Human sTNFR1-peptide displacement assay (LanthaScreen Eu TR-FRET binding assay)
T1 construct: made in house; host or cells: Sf21 (baculovirus)
T1 sequence (P19438 with tags, fused parts or gaps): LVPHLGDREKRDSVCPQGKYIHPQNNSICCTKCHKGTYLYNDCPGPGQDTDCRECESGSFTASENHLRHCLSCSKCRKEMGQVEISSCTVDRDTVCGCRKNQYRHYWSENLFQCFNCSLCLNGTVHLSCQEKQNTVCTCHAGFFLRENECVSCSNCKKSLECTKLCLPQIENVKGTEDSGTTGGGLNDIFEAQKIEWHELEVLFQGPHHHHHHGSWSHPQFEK
Procedure, shortened: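 Readout is the 665/615 nm TR-FRET ratio (Eu anti-His donor, streptavidin-Alexa647 acceptor), normalized to DMSO and saturating displacer, fit by Morrison-based five-parameter logistic for Kd^app. His-tagged sTNFR1 (1-211) prebound to 100 nM biotinylated peptide SEQ ID NO.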

[2] = target: T2, TNFα-induced NF-κB signal transduction pathway (TNFR1 signaling) in THP-1 cells (Homo sapiens, UniProt P19438); assay: THP-1 Lucia NF-κB reporter cell assay, inhibition of TNFα-induced NF-κB signaling; assay type: cell-based; conditions: THP-1 NF-κB Lucia reporter cells, 10 ng/mL TNFα, 16-18 h, secreted luciferase, read-out: THP-1 IC50
T2 sequence (P19438 30-455): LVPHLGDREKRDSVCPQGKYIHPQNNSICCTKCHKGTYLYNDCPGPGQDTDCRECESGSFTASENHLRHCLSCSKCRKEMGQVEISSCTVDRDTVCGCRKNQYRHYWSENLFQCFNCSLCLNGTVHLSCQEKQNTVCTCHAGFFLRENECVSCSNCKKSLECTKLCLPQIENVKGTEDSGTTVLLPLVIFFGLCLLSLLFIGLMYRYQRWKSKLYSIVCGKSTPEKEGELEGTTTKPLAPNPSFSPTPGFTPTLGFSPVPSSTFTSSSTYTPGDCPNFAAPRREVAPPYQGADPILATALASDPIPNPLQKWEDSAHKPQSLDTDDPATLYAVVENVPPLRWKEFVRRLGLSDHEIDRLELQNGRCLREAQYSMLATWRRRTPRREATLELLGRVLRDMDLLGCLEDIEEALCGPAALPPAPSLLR
Procedure, shortened: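 THP-1 Lucia NF-κB cells, 20k/well, no selection antibiotics; peptide pre-inc 1 h 37 °C; + recombinant human TNFα 10 ng/mL final; o.n.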

[3] = displacement of biotinylated peptide SEQ ID NO. 1 from sTNFR1, 20 point titration, 5-parameter fit based on Morrison equation (tight binding), read-out: TR-FRET Kd^app

SMILES | Kd [1, 3] [nM] | IC50 ([1]; displacement of biotinylated peptide SEQ ID NO. 1 from sTNFR1, weaker binders, 10 pts titration, 4-parameter logistic model, read-out: TR-FRET, IC50) [nM] | IC50 [2] [nM] | IC50 [1] [nM] | Kd [1] [nM] | IC50 ([2]; listed as 284) [nM]
CCCC[C@@H]1NC(=O)[C@@H](C)SC[C@@H](C(N)=O)NC(=O)[C@H]([C@@H](C)c2c[nH]c3c(OC)cccc23)NC(=O)CN(C)C(=O)[C@H](Cc2ccc(O)cc2)NC(=O)[C@H](Cc2ccc(C(N)=O)cc2)NC(=O)[C@](C)(CO)NC(=O)[C@H](Cc2c[nH]c3c(Cl)cccc23)NC(=O)[C@H](Cc2ccncc2)NC(=O)[C@H](CC(N)=O)NC(=O)[C@H](CCC(=O)O)N(C)C(=O)[C@H](Cc2c[nH]c3ncccc23)NC(=O)[C@H](CO)NC(=O)[C@H](Cc2ccc(CN)cc2)NC1=O [SEQ ID NO. 250] ([Nle][Phe(4-CH2NH2)]S[Trp(7-aza)][NMeE]N[4Pal][Trp(7-Cl)][αMeS][Phe(4-CONH2)]Y[Sar][Trp(βS-Me,7-OMe)]C-NH2; linker N-14 via X39) | 0.17 | 0.27 | 2.4 |  |  | 
CCCC[C@@H]1NC(=O)CSC[C@@H](C(N)=O)NC(=O)[C@H]([C@@H](C)c2c[nH]c3c(OC)cccc23)NC(=O)CN(C)C(=O)[C@H](Cc2ccc(C(=O)O)cc2)NC(=O)[C@H](Cc2ccc(C(=O)O)cc2)NC(=O)[C@](C)(CO)NC(=O)[C@H](Cc2c[nH]c3c(Cl)cccc23)NC(=O)[C@H](Cc2ccncc2)NC(=O)[C@H](CC(N)=O)NC(=O)[C@H](CCC(=O)O)N(C)C(=O)[C@H](Cc2c[nH]c3ccccc23)NC(=O)[C@@H]2CNCCN2C(=O)[C@H](Cc2ccncc2)NC1=O [SEQ ID NO. 251] ({CH2CO}-[Nle][4Pal][Pip(4-aza)]W[NMeE]N[4Pal][Trp(7-Cl)][αMeS][Phe(4-COOH)][Phe(4-COOH)][Sar][Trp(βS-Me,7-OMe)]C-NH2; thioether N-14) |  |  | 2.7 | 0.5 | 1.17 | 
CCCC[C@@H]1NC(=O)CSC[C@@H](C(N)=O)NC(=O)[C@H]([C@@H](C)c2c[nH]c3c(OC)cccc23)NC(=O)CN(C)C(=O)[C@H](Cc2ccc(O)cc2)NC(=O)[C@H](Cc2ccc(C(=O)O)cc2)NC(=O)[C@](C)(CO)NC(=O)[C@H](Cc2c[nH]c3c(Cl)cccc23)NC(=O)[C@H]([C@@H](C)c2ccncc2)NC(=O)[C@H](CC(N)=O)NC(=O)[C@H](CCC(=O)O)N(C)C(=O)[C@H](Cc2c[nH]c3ccccc23)NC(=O)[C@H](CO)NC(=O)[C@H](Cc2ccc(CN)cc2)NC1=O [SEQ ID NO. 252] ({CH2CO}-[Nle][Phe(4-CH2NH2)]SW[NMeE]N[4Pal(3S-Me)][Trp(7-Cl)][αMeS][Phe(4-COOH)]Y[Sar][Trp(βS-Me,7-OMe)]C-NH2; thioether N-14) |  |  | 23.3 | 2.39 |  | 
CCCC[C@@H]1NC(=O)[C@@H]2CC[C@@H](C2)NC(=O)[C@H]([C@@H](C)c2c[nH]c3c(OC)cccc23)NC(=O)CN(C)C(=O)[C@H](Cc2ccc(OCC(=O)O)cc2)NC(=O)[C@H](Cc2ccc(S(N)(=O)=O)cc2)NC(=O)[C@](C)(CO)NC(=O)[C@H](Cc2c[nH]c3c(C#N)cccc23)NC(=O)[C@H](Cc2ccc(OCC(=O)O)cc2)NC(=O)[C@H](CC(N)=O)NC(=O)[C@H]2C[C@H]([N+](C)(C)C)CN2C(=O)[C@H](Cc2c[nH]c3ncccc23)NC(=O)[C@@H]2CC[C@@H](O)CN2C(=O)[C@H](Cc2ccncc2)NC1=O [SEQ ID NO. 257] (cyclo([4Pal][Pip(5R-OH)][Trp(7-aza)][dPro(trans-4-NMe3+)]NY(Carboxymethyl)[Trp(7-CN)][αMeS][Phe(4-SO2NH2)]Y(Carboxymethyl)[Sar][Trp(βS-Me,7-OMe)][X1][Nle])) | 0.08 |  | 0.4 |  |  | 
CCCC[C@@H]1NC(=O)[C@H](C)SC[C@@H](C(N)=O)NC(=O)[C@H]([C@@H](C)c2c[nH]c3c(OC)cccc23)NC(=O)CN(C)C(=O)[C@H](Cc2ccc(O)cc2)NC(=O)[C@H](Cc2ccc(C(N)=O)cc2)NC(=O)[C@](C)(CO)NC(=O)[C@H](Cc2c[nH]c3c(Cl)cccc23)NC(=O)[C@H](Cc2ccncc2)NC(=O)[C@H](CC(N)=O)NC(=O)[C@H](CCC(=O)O)N(C)C(=O)[C@H](Cc2c[nH]c3ncccc23)NC(=O)[C@H](C(C)(C)N)NC(=O)[C@H](Cc2ccncc2)NC1=O [SEQ ID NO. 273] ([Nle][4Pal][X35][Trp(7-aza)][NMeE]N[4Pal][Trp(7-Cl)][αMeS][Phe(4-CONH2)]Y[Sar][Trp(βS-Me,7-OMe)]C-NH2; linker N-14 via X36) |  |  | 4.1 | 0.6 | 0.33 | 
CCCC[C@@H]1NC(=O)CSC[C@@H](C(N)=O)NC(=O)[C@](C)(Cc2c[nH]c3ccccc23)NC(=O)CN(C)C(=O)[C@H](Cc2ccc(O)cc2)NC(=O)[C@H](Cc2ccc(C(=O)O)cc2)NC(=O)[C@](C)(CO)NC(=O)[C@H](Cc2c[nH]c3c(Cl)cccc23)NC(=O)[C@H](Cc2ccncc2)NC(=O)[C@H](CC(N)=O)NC(=O)[C@H](CCC(=O)O)N(C)C(=O)[C@H](Cc2c[nH]c3ncccc23)NC(=O)[C@H](CCN)NC(=O)[C@H](Cc2ccncc2)NC1=O [SEQ ID NO. 277] ({CH2CO}-[Nle][4Pal][Dab][Trp(7-aza)][NMeE]N[4Pal][Trp(7-Cl)][αMeS][Phe(4-COOH)]Y[Sar][αMeW]C-NH2; thioether N-14) |  |  | 3 | 1.12 |  | 
CCCC[C@@H]1NC(=O)CSC[C@@H](C(N)=O)NC(=O)[C@H]([C@@H](C)c2c[nH]c3c(OC)cccc23)NC(=O)CN(C)C(=O)[C@H](Cc2ccc(O)cc2)NC(=O)[C@H](Cc2ccc(C(=O)O)cc2)NC(=O)[C@](C)(CO)NC(=O)[C@H](Cc2c[nH]c3c(Cl)cccc23)NC(=O)[C@H](Cc2ccncc2)NC(=O)[C@H](CC(N)=O)NC(=O)[C@H]2C[C@H](F)CN2C(=O)[C@H](Cc2c[nH]c3ccccc23)NC(=O)[C@@H]2CNCCN2C(=O)[C@H](Cc2ccncc2)NC1=O [SEQ ID NO. 279] ({CH2CO}-[Nle][4Pal][Pip(4-aza)]W[dPro(trans-4-F)]N[4Pal][Trp(7-Cl)][αMeS][Phe(4-COOH)]Y[Sar][Trp(βS-Me,7-OMe)]C-NH2; thioether N-14) |  |  | 1.4 |  | 0.38 | 
CCCCC[C@@H]1NC(=O)[C@@H]2CC[C@@H](C2)NC(=O)[C@H]([C@@H](C)c2c[nH]c3c(OC)cccc23)NC(=O)CN(C)C(=O)[C@H](Cc2ccc(C(N)=O)cc2)NC(=O)[C@H](Cc2ccc(C(N)=O)cc2)NC(=O)[C@](C)(CO)NC(=O)[C@H](Cc2c[nH]c3c(C#N)cccc23)NC(=O)[C@H](Cc2ccc(C(=O)O)cc2)NC(=O)[C@H](CC(N)=O)NC(=O)[C@H]2C[C@H](O)CN2C(=O)[C@H](Cc2c[nH]c3ccccc23)NC(=O)[C@H](CCCC(=O)O)NC(=O)[C@H]([C@@H](C)c2ccncc2)NC1=O [SEQ ID NO. 282] (cyclo([Aad]W[dHyp]N[Phe(4-COOH)][Trp(7-CN)][αMeS][Phe(4-CONH2)][Phe(4-CONH2)][Sar][Trp(βS-Me,7-OMe)][X1][Ahp(2)][4Pal(3S-Me)])) |  |  | 0.9 |  | 0.13 | 
CCCC[C@@H]1NC(=O)[C@@H]2CC[C@@H](C2)NC(=O)[C@H]([C@@H](C)c2c[nH]c3c(OC)cccc23)NC(=O)CN(C)C(=O)[C@H](Cc2ccc(C(=O)O)cc2)NC(=O)[C@H](Cc2ccc(C(N)=O)cc2)NC(=O)[C@](C)(CO)NC(=O)[C@H](Cc2c[nH]c3c(C#N)cccc23)NC(=O)[C@H](Cc2ccc(C(=O)O)cc2)NC(=O)[C@H](CC(N)=O)NC(=O)[C@H]2C[C@H](OCC(=O)O)CN2C(=O)[C@H](Cc2c[nH]c3ncccc23)NC(=O)[C@@H]2CC[C@@H](O)CN2C(=O)[C@H](Cc2ccncc2)NC1=O [SEQ ID NO. 284] (cyclo([4Pal][Pip(5R-OH)][Trp(7-aza)][dHyp](Carboxymethyl)N[Phe(4-COOH)][Trp(7-CN)][αMeS][Phe(4-CONH2)][Phe(4-COOH)][Sar][Trp(βS-Me,7-OMe)][X1][Nle])) |  |  |  |  | 0.09 | 0.8
